In PMC10004634 (PLOS ONE, 2023):
Like-named read-outs stand apart in the source and are kept apart here.

Legend:
Experiment in all cases: biochemical
Set-up in all cases: KINOMEscan scanMAX competition binding, DNA-tagged kinases, qPCR read-out, percent control at 300 nM
CDK2 = CDK2 (Homo sapiens, UniProt P24941)
FLT3(N841I) = biological target: T1, FLT3(N841I) (Homo sapiens, UniProt P36888, N841I)
T1 sequence (P36888 1-993 N841I): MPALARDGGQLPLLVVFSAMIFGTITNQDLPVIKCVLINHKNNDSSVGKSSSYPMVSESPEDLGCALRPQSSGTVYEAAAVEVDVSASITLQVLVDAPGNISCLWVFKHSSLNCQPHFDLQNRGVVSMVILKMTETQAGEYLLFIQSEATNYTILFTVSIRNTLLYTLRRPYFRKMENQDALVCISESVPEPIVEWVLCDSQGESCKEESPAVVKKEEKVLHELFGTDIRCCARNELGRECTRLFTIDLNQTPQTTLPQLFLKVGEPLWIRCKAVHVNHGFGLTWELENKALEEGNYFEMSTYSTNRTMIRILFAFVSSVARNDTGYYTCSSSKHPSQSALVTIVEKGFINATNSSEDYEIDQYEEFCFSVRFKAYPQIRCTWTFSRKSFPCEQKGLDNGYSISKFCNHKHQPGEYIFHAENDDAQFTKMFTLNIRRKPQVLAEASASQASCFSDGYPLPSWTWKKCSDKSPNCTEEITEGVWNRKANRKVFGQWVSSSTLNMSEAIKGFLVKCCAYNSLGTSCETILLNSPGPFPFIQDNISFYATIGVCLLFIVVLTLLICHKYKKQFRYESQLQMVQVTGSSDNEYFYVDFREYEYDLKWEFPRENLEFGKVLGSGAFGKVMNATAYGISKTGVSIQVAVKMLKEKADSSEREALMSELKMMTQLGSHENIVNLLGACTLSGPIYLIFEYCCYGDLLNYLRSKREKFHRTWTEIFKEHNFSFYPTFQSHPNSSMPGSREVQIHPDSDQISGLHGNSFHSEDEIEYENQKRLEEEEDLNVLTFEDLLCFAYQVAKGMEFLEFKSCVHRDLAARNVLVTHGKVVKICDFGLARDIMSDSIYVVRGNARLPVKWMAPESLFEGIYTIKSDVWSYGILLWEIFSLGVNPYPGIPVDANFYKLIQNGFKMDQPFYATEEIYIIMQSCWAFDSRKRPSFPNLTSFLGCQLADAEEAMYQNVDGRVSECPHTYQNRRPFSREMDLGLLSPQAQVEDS

RIOK1 = biological target: T2, RIOK1 (Homo sapiens, UniProt Q9BRS2)
T2 sequence (Q9BRS2 1-568): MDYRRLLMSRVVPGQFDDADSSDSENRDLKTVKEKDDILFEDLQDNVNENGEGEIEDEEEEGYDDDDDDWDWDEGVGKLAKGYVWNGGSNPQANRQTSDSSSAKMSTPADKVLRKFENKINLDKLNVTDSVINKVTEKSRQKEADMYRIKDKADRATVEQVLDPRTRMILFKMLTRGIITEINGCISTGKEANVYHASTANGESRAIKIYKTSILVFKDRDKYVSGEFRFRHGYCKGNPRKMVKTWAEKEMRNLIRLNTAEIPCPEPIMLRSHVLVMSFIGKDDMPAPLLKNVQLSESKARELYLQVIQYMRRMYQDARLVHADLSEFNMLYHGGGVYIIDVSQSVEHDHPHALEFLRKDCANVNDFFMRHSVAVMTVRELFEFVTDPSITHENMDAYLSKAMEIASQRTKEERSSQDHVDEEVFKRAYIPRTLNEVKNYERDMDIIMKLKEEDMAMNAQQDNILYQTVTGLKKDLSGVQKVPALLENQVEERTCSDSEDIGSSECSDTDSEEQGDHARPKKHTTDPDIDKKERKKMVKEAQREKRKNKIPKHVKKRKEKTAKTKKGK

TXK = biological target: T3, TXK (Homo sapiens, UniProt P42681)
T3 sequence (P42681 1-527): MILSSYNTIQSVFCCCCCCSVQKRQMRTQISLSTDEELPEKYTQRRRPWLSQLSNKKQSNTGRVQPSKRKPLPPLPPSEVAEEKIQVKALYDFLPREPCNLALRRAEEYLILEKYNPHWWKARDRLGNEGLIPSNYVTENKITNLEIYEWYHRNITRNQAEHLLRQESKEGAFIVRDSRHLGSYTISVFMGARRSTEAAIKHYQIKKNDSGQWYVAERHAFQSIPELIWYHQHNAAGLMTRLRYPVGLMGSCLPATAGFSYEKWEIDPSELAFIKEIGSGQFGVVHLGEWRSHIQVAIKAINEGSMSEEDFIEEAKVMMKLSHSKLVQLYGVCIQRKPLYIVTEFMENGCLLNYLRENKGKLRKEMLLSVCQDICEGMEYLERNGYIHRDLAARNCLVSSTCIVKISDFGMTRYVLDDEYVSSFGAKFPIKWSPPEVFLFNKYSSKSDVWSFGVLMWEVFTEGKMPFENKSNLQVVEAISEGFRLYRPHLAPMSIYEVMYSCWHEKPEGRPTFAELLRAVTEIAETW

PIM2 = PIM2 (Homo sapiens, UniProt Q9P1W9)
Chain of PIM2 (Q9P1W9 whole entry): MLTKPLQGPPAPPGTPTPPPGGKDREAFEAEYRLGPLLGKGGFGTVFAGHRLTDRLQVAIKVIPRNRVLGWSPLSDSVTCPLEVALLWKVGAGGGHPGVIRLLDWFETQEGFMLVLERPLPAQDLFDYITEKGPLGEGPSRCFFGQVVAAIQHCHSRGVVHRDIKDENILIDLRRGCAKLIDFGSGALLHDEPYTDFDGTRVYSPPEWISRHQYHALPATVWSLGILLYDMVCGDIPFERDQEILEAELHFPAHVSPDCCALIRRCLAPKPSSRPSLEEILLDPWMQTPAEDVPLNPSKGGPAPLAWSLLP

[1] = read-out: Percent control / Acalabrutinib
[2] = read-out: Percent control / Ibrutinib
[3] = read-out: Percent control / Tirabrutinib
[4] = read-out: Percent control / Zanubrutinib

`CC#CC(=O)N1CCC[C@H]1c1nc(-c2ccc(C(=O)Nc3ccccn3)cc2)c2c(N)nccn12` [Acalabrutinib] was tested, and the remaining binding at 0.3 µM (CDK2; [1]) was 86%, the remaining binding at 0.3 µM (FLT3(N841I); [1]) was 85% and the remaining binding at 0.3 µM (RIOK1; [1]) was 72%. The remaining binding at 0.3 µM (TXK; [1]) was 43%.

Work on `C=CC(=O)N1CCC[C@@H](n2nc(-c3ccc(Oc4ccccc4)cc3)c3c(N)ncnc32)C1` [Ibrutinib] yielded a remaining binding at 0.3 µM (FLT3(N841I); [2]) of 39%, a remaining binding at 0.3 µM (PIM2; [2]) of 96% and a remaining binding at 0.3 µM (RIOK1; [2]) of 51%. The remaining binding at 0.3 µM (TXK; [2]) was 0.4%.

`CC#CC(=O)N1CC[C@@H](n2c(=O)n(-c3ccc(Oc4ccccc4)cc3)c3c(N)ncnc32)C1` [Tirabrutinib] showed a remaining binding at 0.3 µM (CDK2; [3]) of 82%, a remaining binding at 0.3 µM (PIM2; [3]) of 99% and a remaining binding at 0.3 µM (RIOK1; [3]) of 79%. For the same compound, the remaining binding at 0.3 µM (TXK; [3]) was 38%.

Compound `C=CC(=O)N1CCC([C@@H]2CCNc3c(C(N)=O)c(-c4ccc(Oc5ccccc5)cc4)nn32)CC1` [Zanubrutinib] has a remaining binding at 0.3 µM (CDK2; [4]) of 99%, a remaining binding at 0.3 µM (FLT3(N841I); [4]) of 100% and a remaining binding at 0.3 µM (PIM2; [4]) of 96%. The remaining binding at 0.3 µM (RIOK1; [4]) was 75% and the remaining binding at 0.3 µM (TXK; [4]) was 14%.
